Data: ChEMBL document CHEMBL1914382, “Fragment based discovery of a novel and selective PI3 kinase inhibitor” (Bioorg Med Chem Lett, 2011)

How the values were obtained:
[1] = Metabolic stability in human liver microsomes; type: ADME, Microsome; conditions: read-out: Stability
[2] = Metabolic stability in rat liver microsomes; type: ADME, Microsome; conditions: read-out: Stability
[3] = Permeability of the compound by PAMPA; type: ADME; conditions: read-out: permeability

In the case of `CC(=O)Nc1cn2cc(/C=C3\SC(=O)NC3=O)ccc2n1`, the microsomal CLint [1] is reported as 10 µL/min/mg, the microsomal CLint [2] is reported as 15 µL/min/mg and the Papp [3] is reported as 13.6 ×10⁻⁶ cm/s.
